Experimental data: patent US20250263370A1 (Tay Therapeutics Limited, priority 2022, published 2025)
Converted amounts (≈) assume the structure as drawn.

Key:
[1] = Sprague-Dawley rat pharmacokinetics, IV and PO cassette dosing; type: in vivo
Procedure, shortened: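 Male Sprague-Dawley rats (2 per arm) given up to 5 compounds in cassette, 1 mg/kg IV and 5 mg/kg PO, formulated in 5% DMSO/40% PEG-400/55% water. Plasma from serial blood samples was acetonitrile-precipitated and analysed by LC/MS/MS against matrix-matched standard curves.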

[2] = Thermodynamic solubility in FaSSIF pH 6.5 buffer; type: physicochemical; conditions: FaSSIF buffer, 25 °C, pH 6.5, fassif, thermodynamic from solid, Method 1 (UV-vis, 25° C., 24 hrs)
Description: FaSSIF v2 buffer is freshly prepared prior to use according to the suppliers' instructions and the pH adjusted to 6.5 using 1 M NaOH or 1 M HCl as required. From 1 mM working solution of test compound in DMSO, the λmax of the test compound is determined by scanning from 200 nm to 700 nm, in 1 nm steps with an EPOCH UV/Visible spectrophotometer (Biotek Instruments Inc.). A 12-point standard curve of compound concentration versus absorption at λmax is generated via two-fold serial dilutions of the 1 mM working solution with DMSO. Approximately 1 mg of test compound is accurately weighed into an Eppendorf tube and the appropriate volume of FaSSIF buffer is added to make a nominal concentration of 1 mg/mL. The tube is incubated on a rotator at 20 rpm, 25° C. for 24 hrs. Samples are then filtered using 0.45 μm filters (Sartorious, CAT #1776C) and the filtrate subjected to UV-vis spectroscopy analysis. The absorption at λmax is compared to the standard curve to determine the concentration of compound in solution after 24 hours.
FaSSIF buffer was prepared according to the suppliers' instructions and the pH adjusted to 6.5 using 1 M NaOH or 1 M HCl as required. […] A stir stick was added to each vial and vials sealed with a moulded PTDE/SIL 96-well plate cover. The plate was shaken at 25° C. at 1,100 rpm using an Eppendorf Thermomixer Comfort plate shaker. The plates were filtered using a vacuum manifold and diluted with a mixture of H2O and acetonitrile containing internal standard. The concentration of the test compound in the filtrate was determined by LCMS analysis with reference to the internal standards to determine the solubility in the buffer.

[3] = Plasma stability assay, rat plasma; type: in vitro ADME; conditions: Method 1 (5 μM)
Procedure, shortened: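 Compound at 5 μM final (0.5% DMSO) in one protocol or 10 μM (2% DMSO) in the other, incubated in plasma at 37° C.; samples taken 0–120 min and quenched with cold acetonitrile plus internal standard. LC-MS/MS gives percent remaining relative to the 0-min sample.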

[4] = target: BRD4 BD2 (Homo sapiens (Human), UniProt O60885); assay: NanoBRET bromodomain assay, NanoLuc-BRD4-BD2 fusion in HEK293 cells;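 note: tracer displacement BRET read in transfected cells after 2 h compound exposure at 37 °C, signal in milliBRET units corrected against no-tracer background wells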
[5] = Intrinsic clearance in liver microsomes, rat; type: in vitro ADME; conditions: rat, liver microsomes, pH 7.4, rat liver microsomes, Method 1; read-out: Half-Life (T1/2) (min), Rat
Procedure, shortened: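 Compound at 1 μM (0.1–1% DMSO) incubated at 37 °C with mouse or rat liver microsomes (0.5 mg/mL protein) and 1 mM NADPH in PBS pH 7.4; samples taken up to 60 min and quenched in cold acetonitrile. LC-MS/MS of percent remaining gave half-life and CLint; no-NADPH controls run.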

[6] = Plasma stability assay, human plasma; type: in vitro ADME; conditions: Method 1 (5 μM)
Description: (§1) From stock solution of compound in 10 mM DMSO, a working solution of 1 mM is prepared by diluting the compound in DMSO. To 398 μL of plasma pre-warmed at 37° C. for 15 minutes), 2 μL of working solution of compound is added, resulting in a final concentration of 5 μM (0.5% DMSO) for the compound. The sample is then incubated at 37° C. Aliquot is withdrawn at specified time-points (0, 15, 30, 60 and 120 mins). The reaction is stopped by addition of 450 μL cold acetonitrile containing internal standard (IS). […] Aliquots of the supernatant is analysed using LC-MS/MS. The percent remaining of the compound at each time point is calculated with respect to the control sample (0 min time-point).
(§2) A working solution of compound (500 μM) is prepared in DMSO (100%). To 735 μL of plasma, 15 μL of working solution of compound is added—resulting in a final concentration of 10 μM (2% DMSO) for the compound. The sample is then incubated at 37° C. Aliquot is withdrawn at time-points—0, 15, 30, 60, 90 and 120 mins. The reaction is stopped by using chilled acetonitrile containing internal standard (IS). The samples are centrifuged and the supernatants analyzed using LC-MS/MS. The percent remaining of the compound at each time point is calculated with respect to the control sample (0 min time-point).

[7] = Intrinsic clearance in liver microsomes, mouse; type: in vitro ADME; conditions: pH 7.4, Method 1, read-out: Half-Life (T1/2) (min), Mouse
Description: From stock solution of compound on 10 mM DMSO, a working solution of 0.1 mM is prepared by diluting the compound in DMSO. 6.25 μL of a 20 mg/mL solution of microsomes in PBS pH 7.4 buffer is added to 216.25 μL PBS pH 7.4 buffer (final microsome concentration—0.5 mg/mL). 25 μL of 10 mM solution of NADPH in PBS pH 7.4 buffer is added to the incubations (final NADPH concentration—1 mM). The mixture is pre-warmed to 37° C. for 10 minutes. 2.5 μL of test compound working solution is added (final compound concentration—1 μM with 1% DMSO). Aliquots of 30 μL are taken from the reaction solution at 0.5, 5, 15, 30 and 60 minutes. The reaction was stopped by the addition of 5 volumes of cold acetonitrile with IS (100 nM alprazolam, 200 nM caffeine and 100 nM tolbutamide). Samples were centrifuged at 3, 220 g for 40 minutes. Aliquots of 100 μL of the supernatant are mixed with 100 μL of ultra-pure H2O and used for LC-MS/MS analysis. The percent compound remaining at each time point is calculated with respect to that of the 0.5 min sample. The data are analysed to calculate half-life. Control experiments are run without NADPH and blank samples are prepared using DMSO without the test compound.
A 50 mM stock solution (in DMSO) is prepared for the compound. From the stock solution, a working solution of 0.5 mM is prepared by diluting the compound in DMSO. This concentration of working solution is prepared considering a final concentration of 1 uM with 0.1% DMSO. The compound (1 μL of working solution) is spiked in PBS with pH 7.4 ([…]) at a concentration of 1 μM. Subsequently, 110 μL of 10 mM NADPH is added (as a co-factor). The sample is incubated at 37° C. for 15 min. Following this, pre-warmed liver microsomes (27.5 μL; final protein conc. 0.5 mg/mL) are added. The samples are then incubated at 37° C. Aliquots of samples are withdrawn at 0, 5, 15, 30, 45 and 60 min. The reaction is stopped by using chilled acetonitrile containing internal standard. The samples are centrifuged, and the supernatants analysed by LC-MS/MS. The percent compound remaining at each time point is calculated with respect to that of the 0 min sample. The data are then analysed to calculate half-life and intrinsic clearance (CLint). Control experiments are run without NADPH and blank samples are prepared using DMSO without the test compound.

[8] = target: BRD4 BD1 (Homo sapiens (Human), UniProt O60885); assay: NanoBRET bromodomain assay, NanoLuc-BRD4-BD1 fusion in HEK293 cells; type: cell-based; conditions: top concentration 10 μM
[9] = Plasma stability assay, mouse plasma; type: in vitro ADME; conditions: Method 1 (5 μM)
Description: as §1, §2

PO F ([1]; PO 5 mg/kg, Method 1): 60%
half-life ([1]; male, Sprague-Dawley, rat, plasma, iv, 1 mg/kg, IV 1 mg/kg, Method 1, read-out: IV T1/2 (converted)): 1.4 h
solubility thermodynamic at 24 h [2]: 418 µM (≈ 161 µg/mL)
Plasma Stability (% remaining at 120 minutes), Rat [3]: >99%
IC50 ([4]; BRD4 BD2 (IC50), NanoBRET, HEK293 cells, top concentration 10 μM): 50 to 200 nM
Fold selectivity ([4]; IC50 for BRD4 BD1 divided by IC50 for BRD4 BD2, qualitative if an IC50 is at the upper limit): XX (Fold >50 and ≤200)
half-life at 1 μM [5]: > 60 min
Plasma Stability (% remaining at 120 minutes), Human [6]: >99%
half-life at 1 μM [7]: 70 min
IC50 [8]: ≥ 10000 nM
Plasma Stability (% remaining at 120 minutes), Mouse [9]: 93%
Compound: CNC(=O)c1[nH]c(C(=O)N[C@H]2CC[C@H](O)CC2)cc1OC(C)c1ccccc1 (single isomer, unassigned) [Example 97, N^5-(trans-4-hydroxycyclohexyl)-N^2-methyl-3-(1-phenylethoxy)-1H-pyrrole-2,5-dicarboxamide]
